Reference: patent publication US20250114338A1, “TETRAHYDRO-PYRIDO[3,4-b]INDOLE ESTROGEN RECEPTOR MODULATORS AND USES THEREOF” (Genentech, Inc., priority 2014, published 2025)

Test system: ER-alpha MCF7
Test: ER-alpha MCF7 HCS EC50; stated as measured by in vitro cell proliferation assays of Examples 902 and 903
Format: cell-based
Conditions: Homo sapiens, MCF7, MCF7 cells; Table 2
In short: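 MCF7 cells seeded 1000-2000 cells/well for 16 h, then treated with nine-point 1:2 DMSO dilution series in quadruplicate at 37 °C, 5% CO2 for 4 days. Viable cells quantified by CellTiter-Glo ATP luminescence; EC50 calculated. Controls: fulvestrant at final 100 nM, DMSO 0.2% v/v.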

SMILES | EC50 [nM]
C[C@@H]1Cc2c([nH]c3ccccc23)[C@@H](c2c(F)cc(OCCN3CC(CF)C3)cc2F)N1C(=O)C1COC1 [Example 213, [(1R,3R)-1-[2,6-difluoro-4-[2-[3-(fluoromethyl)azetidin-1-yl]ethoxy]phenyl]-3-methyl-1,3,4,9-tetrahydropyrido[3,4-b]indol-2-yl]-(oxetan-3-yl)methanone] | 4
C[C@@H]1Cc2c([nH]c3ccccc23)[C@@H](c2c(F)cc(OCCN3CC(CF)C3)cc2F)N1C(=O)C1CSC1 [Example 214, [(1R,3R)-1-[2,6-difluoro-4-[2-[3-(fluoromethyl)azetidin-1-yl]ethoxy]phenyl]-3-methyl-1,3,4,9-tetrahydropyrido[3,4-b]indol-2-yl]-(thietan-3-yl)methanone] | 4
C[C@@H]1Cc2c([nH]c3ccccc23)[C@@H](c2c(F)cc(OCCN3CC(CF)C3)cc2F)N1C(=O)[C@@H](C)CF [Example 215, (R)-1-((1R,3R)-1-(2,6-difluoro-4-(2-(3-(fluoromethyl)azetidin-1-yl)ethoxy)phenyl)-3-methyl-1,3,4,9-tetrahydro-2H-pyrido[3,4-b]indol-2-yl)-3-fluoro-2-methylpropan-1-one] | 0.335
C[C@@H]1Cc2c([nH]c3ccccc23)[C@@H](c2c(F)cc(OCCN3CC(CF)C3)cc2F)N1CC1CCCC1 [Example 216, (1R,3R)-2-(cyclopentylmethyl)-1-[2,6-difluoro-4-[2-[3-(fluoromethyl)azetidin-1-yl]ethoxy]phenyl]-3-methyl-1,3,4,9-tetrahydropyrido[3,4-b]indole] | 1
C[C@@H]1Cc2c([nH]c3ccccc23)[C@@H](c2c(F)cc(OC3CN(CC4CCC(F)(F)CC4)C3)cc2F)N1CC(C)(C)F [Example 217, (1R,3R)-1-[4-[1-[(4,4-difluorocyclohexyl)methyl]azetidin-3-yl]oxy-2,6-difluoro-phenyl]-2-(2-fluoro-2-methyl-propyl)-3-methyl-1,3,4,9-tetrahydropyrido[3,4-b]indole] | 2
C[C@H](CF)C(=O)N1[C@H](c2c(F)cc(OCCN3CC(CF)C3)cc2F)c2[nH]c3ccccc3c2C[C@H]1C [Example 218, (S)-1-((1R,3R)-1-(2,6-difluoro-4-(2-(3-(fluoromethyl)azetidin-1-yl)ethoxy)phenyl)-3-methyl-1,3,4,9-tetrahydro-2H-pyrido[3,4-b]indol-2-yl)-3-fluoro-2-methylpropan-1-one] | 0.402
C[C@@H]1Cc2c([nH]c3ccccc23)[C@@H](c2c(F)cc(OCCN3CC(CF)C3)cc2F)N1C(=O)C1CCO1 (stereo partly drawn) [Example 219, ((1R,3R)-1-(2,6-difluoro-4-(2-(3-(fluoromethyl)azetidin-1-yl)ethoxy)phenyl)-3-methyl-1,3,4,9-tetrahydro-2H-pyrido[3,4-b]indol-2-yl)(oxetan-2-yl)methanone] | 35
C[C@@H]1Cc2c([nH]c3ccccc23)[C@@H](c2c(F)cc(OCCN3CC(CF)C3)cc2F)N1 [Example 220, (1R,3R)-1-[2,6-difluoro-4-[2-[3-(fluoromethyl)azetidin-1-yl]ethoxy]phenyl]-3-methyl-2,3,4,9-tetrahydro-1H-pyrido[3,4-b]indole] | 7
C[C@@H]1Cc2c([nH]c3ccccc23)[C@@H](c2ccc(OCCN3CC(CF)C3)cc2)N1C(=O)C(C)(C)F [Example 221, 2-fluoro-1-[(1R,3R)-1-[4-[2-[3-(fluoromethyl)azetidin-1-yl]ethoxy]phenyl]-3-methyl-1,3,4,9-tetrahydropyrido[3,4-b]indol-2-yl]-2-methyl-propan-1-one] | 180
C[C@@H]1Cc2c([nH]c3ccccc23)[C@@H](c2c(F)cc(OC3CN(CCCF)C3)cc2F)N1C(=O)C(C)(C)F [Example 222, 1-[(1R,3R)-1-[2,6-difluoro-4-[1-(3-fluoropropyl)azetidin-3-yl]oxy-phenyl]-3-methyl-1,3,4,9-tetrahydropyrido[3,4-b]indol-2-yl]-2-fluoro-2-methyl-propan-1-one] | 0.4
C[C@@H]1Cc2c([nH]c3ccccc23)[C@@H](c2c(F)cc(OCCN3CC(CF)C3)cc2F)N1C(=O)CN(C)C [Example 223, 1-[(1R,3R)-1-[2,6-difluoro-4-[2-[3-(fluoromethyl)azetidin-1-yl]ethoxy]phenyl]-3-methyl-1,3,4,9-tetrahydropyrido[3,4-b]indol-2-yl]-2-(dimethylamino)ethanone] | 38
C[C@@H]1Cc2c([nH]c3ccccc23)[C@@H](c2c(F)cc(OC3CN(CC4(F)CC4)C3)cc2F)N1CC(C)(C)F [Example 224, (1R,3R)-1-[2,6-difluoro-4-[1-[(1-fluorocyclopropyl)methyl]azetidin-3-yl]oxy-phenyl]-2-(2-fluoro-2-methyl-propyl)-3-methyl-1,3,4,9-tetrahydropyrido[3,4-b]indole] | 0.316
C[C@@H]1Cc2c([nH]c3ccccc23)[C@@H](c2c(F)cc(OC3CN(CCCF)C3)cc2F)N1C(=O)C1(F)CCC1 [Example 225, [(1R,3R)-1-[2,6-difluoro-4-[1-(3-fluoropropyl)azetidin-3-yl]oxy-phenyl]-3-methyl-1,3,4,9-tetrahydropyrido[3,4-b]indol-2-yl]-(1-fluorocyclobutyl)methanone] | 1
C[C@@H]1Cc2c([nH]c3ccccc23)[C@@H](c2c(F)cc(OC3CN(CCCF)C3)cc2F)N1C(=O)C1(C)CC1 [Example 226, [(1R,3R)-1-[2,6-difluoro-4-[1-(3-fluoropropyl)azetidin-3-yl]oxy-phenyl]-3-methyl-1,3,4,9-tetrahydropyrido[3,4-b]indol-2-yl]-(1-methylcyclopropyl)methanone] | 2
C[C@@H]1Cc2c([nH]c3ccccc23)[C@@H](c2c(F)cc(OC3CN(CCCF)C3)cc2F)N1CC1(CF)CC1 [Example 227] | 0.17
C[C@@H]1Cc2c([nH]c3ccccc23)[C@@H](c2c(F)cc(OC3CN(CCCF)C3)cc2F)N1CC1(CO)CC1 [Example 228, [1-[[(1R,3R)-1-[2,6-difluoro-4-[1-(3-fluoropropyl)azetidin-3-yl]oxy-phenyl]-3-methyl-1,3,4,9-tetrahydropyrido[3,4-b]indol-2-yl]methyl]cyclopropyl] methanol] | 1
C[C@@H]1Cc2c([nH]c3ccccc23)[C@H](c2ccc(OCCN3CC(CF)C3)cc2F)N1C(=O)C(C)(C)F [Example 229, 2-fluoro-1-[(1S,3R)-1-[2-fluoro-4-[2-[3-(fluoromethyl)azetidin-1-yl]ethoxy]phenyl]-3-methyl-1,3,4,9-tetrahydropyrido[3,4-b]indol-2-yl]-2-methyl-propan-1-one] | 25
C[C@@H]1Cc2c([nH]c3ccccc23)[C@@H](c2ccc(OCCN3CC(CF)C3)cc2F)N1C(=O)C(C)(C)F [Example 230, 2-fluoro-1-[(1R,3R)-1-[2-fluoro-4-[2-[3-(fluoromethyl)azetidin-1-yl]ethoxy]phenyl]-3-methyl-1,3,4,9-tetrahydropyrido[3,4-b]indol-2-yl]-2-methyl-propan-1-one] | 0.068
C[C@@H]1Cc2c([nH]c3ccccc23)[C@H](c2ccc(OCCN3CC(CF)C3)cc2F)N1S(C)(=O)=O [Example 231, (1S,3R)-1-[2-fluoro-4-[2-[3-(fluoromethyl)azetidin-1-yl]ethoxy]phenyl]-3-methyl-2-methylsulfonyl-1,3,4,9-tetrahydropyrido[3,4-b]indole] | 24
C[C@@H]1Cc2c([nH]c3ccccc23)[C@@H](c2ccc(OCCN3CC(CF)C3)cc2F)N1S(C)(=O)=O [Example 232, (1R,3R)-1-[2-fluoro-4-[2-[3-(fluoromethyl)azetidin-1-yl]ethoxy]phenyl]-3-methyl-2-methylsulfonyl-1,3,4,9-tetrahydropyrido[3,4-b]indole] | 0.192
C[C@@H]1Cc2c([nH]c3ccccc23)[C@@H](c2c(F)cc(OC3CN(CCCF)C3)cc2F)N1C[C@](C)(F)CO [Example 233, 3-((1R,3R)-1-(2,6-difluoro-4-((1-(3-fluoropropyl)azetidin-3-yl)oxy)phenyl)-3-methyl-1,3,4,9-tetrahydro-2H-pyrido[3,4-b]indol-2-yl)-2-fluoro-2-methylpropan-1-ol] | 0.133
C[C@@H]1Cc2c([nH]c3ccccc23)[C@@H](c2c(F)cc(OC3CN(CCCF)C3)cc2F)N1C[C@@](C)(F)CO [Example 234, 3-((1R,3R)-1-(2,6-difluoro-4-((1-(3-fluoropropyl)azetidin-3-yl)oxy)phenyl)-3-methyl-1,3,4,9-tetrahydro-2H-pyrido[3,4-b]indol-2-yl)-2-fluoro-2-methylpropan-1-ol] | 0.18
C[C@@H]1Cc2c([nH]c3ccccc23)[C@H](c2ccc(OCCN3CC(CF)C3)cc2)N1C(=O)C(C)(C)F [Example 235, 2-fluoro-1-[(1S,3R)-1-[4-[2-[3-(fluoromethyl)azetidin-1-yl]ethoxy]phenyl]-3-methyl-1,3,4,9-tetrahydropyrido[3,4-b]indol-2-yl]-2-methyl-propan-1-one] | 24
CC(C)(F)CN1CCc2c([nH]c3ccccc23)[C@H]1c1c(F)cc(OCCN2CC(CF)C2)cc1F [Example 236, (IR)-1-[2,6-difluoro-4-[2-[3-(fluoromethyl)azetidin-1-yl]ethoxy]phenyl]-2-(2-fluoro-2-methyl-propyl)-1,3,4,9-tetrahydropyrido[3,4-b]indole] | 0.182
CC(C)(F)CN1CCc2c([nH]c3ccccc23)[C@@H]1c1c(F)cc(OCCN2CC(CF)C2)cc1F [Example 237, (1S)-1-[2,6-difluoro-4-[2-[3-(fluoromethyl)azetidin-1-yl]ethoxy]phenyl]-2-(2-fluoro-2-methyl-propyl)-1,3,4,9-tetrahydropyrido[3,4-b]indole] | 46
C[C@@H]1Cc2c([nH]c3ccccc23)[C@@H](c2c(F)cc(OC3CN(CCCF)C3)cc2F)N1C(=O)C1(F)CC1 [Example 238, [(1R,3R)-1-[2,6-difluoro-4-[1-(3-fluoropropyl)azetidin-3-yl]oxy-phenyl]-3-methyl-1,3,4,9-tetrahydropyrido[3,4-b]indol-2-yl]-(1-fluorocyclopropyl)methanone] | 0.244
